# *1 amine or outer side, *2 acyl side, *3 side chain or, on linkers, in order; H or OH if unused. Where no end group is shown, it is not given here. K(Palm) = CCCCCCCCCCCCCCCC(=O)NCCCC[C@H](N[*:1])C(=O)[*:2]
# Key:
# SHR rats [1] = settings: unmodified ADM peptide; stated as what it normally lasts, no figure; cited from earlier work
# SHR rats [2] = assay: Systolic blood pressure in conscious SHR rats (tail-cuff) after i.p. intermedin peptides; type: in vivo, rat; settings: for duration of hypotensive effect in vivo: i.p.
# Text: FIG. 1A-1C are examples of blood pressure measurements in SHR rats after treatment with a long-acting intermedin peptide (Palmitic acid-modified IMD, IMD-PA), A. 30 nmoles/kg BW; B/C, 100 nmoles/kg BW.
# FIG. 2A-2B are examples of blood pressure measurements in SHR rates after injection with a wild type intermedin peptide (IMD, 100 nmoles/kg BW). The hypotensive effects of the IMD-PA peptide lasted over five hours in vivo, whereas that of the unmodified IMD peptide lasted less than 1 hr.
# (§1) The intermedin peptides were dissolved in saline solution with 10-20% DMSO at 10 micromoles/liter, Before injection, aliquots of peptides were dissolved in PBS to a injection final volume of 100 ul. Blood pressure measurements were made in conscious SHR rats (9-16 weeks of age) pre-adapted to the measurement procedure. Indirect systolic pressure was determined by a programmable non-invasive blood pressure system using the tail-cuff method (Kent Scientific Corporation). Following attachment of the pressure transducer, rats were left undisturbed for 10 min before base-line measurements that spanned a 15-20 minute interval. Following base-line measurements, rats were injected intraperitoneally with varying doses of peptides, or saline with 10% DMSO. Blood pressure and heart rate were monitored for 20-40 min at 30-s intervals. Changes in blood pressure were calculated as the average of measurements performed within a given time interval.
# The hypotensive effects of this peptide lasted over five hours in vivo, whereas that of the unmodified IMD peptide lasted less than 1 hr. The results from control animals injected with PBS is depicted in FIG. 3, and from the unmodified peptide in FIG. 2.
# [3] = biological target: T1, adrenomedullin receptor 1 (CLR/RAMP2) (Homo sapiens, UniProt O60895+Q16602); assay: Stimulatory effect in 293T cells expressing recombinant adrenomedullin receptor 1; type: cell-based; settings: 293T cells expressing CLR/RAMP2
# T1 construct: expressed in transfected cells; host or cells: 293T cells
# T1 sequence (Q16602 23-461): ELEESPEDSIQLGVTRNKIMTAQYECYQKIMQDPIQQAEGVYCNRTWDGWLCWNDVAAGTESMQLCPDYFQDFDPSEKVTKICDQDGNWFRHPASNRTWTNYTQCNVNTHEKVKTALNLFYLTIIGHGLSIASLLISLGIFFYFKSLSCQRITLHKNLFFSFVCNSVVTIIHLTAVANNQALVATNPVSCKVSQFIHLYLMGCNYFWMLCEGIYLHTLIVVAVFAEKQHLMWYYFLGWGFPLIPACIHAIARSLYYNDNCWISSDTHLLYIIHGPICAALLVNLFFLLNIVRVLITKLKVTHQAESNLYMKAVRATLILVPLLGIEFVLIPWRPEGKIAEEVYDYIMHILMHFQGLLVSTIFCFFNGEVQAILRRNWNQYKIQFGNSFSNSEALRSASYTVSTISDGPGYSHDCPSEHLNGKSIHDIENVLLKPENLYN
# T1 sequence (O60895 43-175): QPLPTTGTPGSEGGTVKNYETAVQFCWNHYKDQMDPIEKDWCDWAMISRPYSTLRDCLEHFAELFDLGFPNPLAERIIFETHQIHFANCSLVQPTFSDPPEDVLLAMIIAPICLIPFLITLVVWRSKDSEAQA
# Text: (§2) Biological activity of adrenomedullin in vitro.
# [4] = biological target: T2, adrenomedullin receptor 2 (CLR/RAMP3) (Homo sapiens, UniProt O60896+Q16602); assay: Stimulatory effect in 293T cells expressing recombinant adrenomedullin receptor 2; type: cell-based; settings: 293T cells expressing CLR/RAMP3
# T2 construct: expressed in transfected cells; host or cells: 293T cells
# T2 sequence (Q16602 23-461): as the sequence (Q16602 23-461) above
# T2 sequence (O60896 24-148): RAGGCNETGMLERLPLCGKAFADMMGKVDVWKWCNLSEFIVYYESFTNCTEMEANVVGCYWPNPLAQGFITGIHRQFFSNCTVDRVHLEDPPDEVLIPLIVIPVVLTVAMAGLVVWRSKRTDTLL
# Text: as §2
# SHR rats [5] = assay: Systolic blood pressure in conscious SHR rats (tail-cuff) after i.p. adrenomedullin peptides; type: in vivo, rat
# Method: FIG. 5A-5C show examples of systolic pressure measurement of SHR rats after an injection of a long-acting adrenomedullin peptide (Palmitic acid-conjugated ADM, ADM-PA, 100 nmoles/kg BM. The hypotensive effect of this peptide lasted over five hours in vivo. By contrast, the hypotensive effect of unmodified ADM peptide normally lasts less than 1.5 hr.
# as §1, with “Biological activity of adrenomedullin analog in vivo. The” for “The”, “adrenomedullin” for “intermedin”, “200 μl.” for “100 ul.”, “10-15” for “15-20”, “20-s” for “30-s”
# (see Roh et al. Mol Endocrinol. 2005 November; 19(11):2824-38).
# [6] = Immunoreactive ADM retained in vivo after i.p. injection, by ELISA
substance,measurement,setting,value
"ADM: wild type, unmodified adrenomedullin peptide (YRQSMNNFQGLRSFGCRFGTCTVQKLAHQIYQFTDKDKDNVAPRSKISPQGY; ends and bridges not checked; cysteine pairing not given here)",duration of hypotensive effect (normally),SHR rats [1],less than 1.5 hr
"IMD: wild type, unmodified intermedin peptide (VGCVLGTCQVQNLSHRLWQLMGPAGRQDSAPVDPSSPHSY; ends and bridges not checked; cysteine pairing not given here) [reference compound]",duration of hypotensive effect in vivo,SHR rats [2]; unmodified IMD 100 nmoles/kg BW,less than 1 hr
K(mod)GCRFGTCTVQKLAHQIYQFTDKDKDNVAPRSKISPQGY [ADM-PA],stimulatory effect in vitro compared with wild type ADM,[3],lower than that of the wild type ADM
same,stimulatory effect in vitro compared with wild type ADM,[4],lower than that of the wild type ADM
same,change in systolic blood pressure over time,"SHR rats [5]; SHR rats, 100 nmoles/kg body weight",significant and long lasting drop
same,duration of hypotensive effect in vivo,"SHR rats [5]; SHR rats, ADM-PA 100 nmoles/kg",over five
same,effective life in vivo compared with wild type ADM,SHR rats [5]; in vivo,significantly longer effective life
same,level of immunoreactive peptide retained in vivo compared with ADM,[6]; 12 hr after i.p. injection,significantly higher
same,half-life compared with ADM,[6]; measurement of immunoreactive ADM using ELISA,long half-life as compared to ADM
"K(mod)GCVLGTCQVQNLSHRLWQLMGPAGRQDSAPVDPSSPHSY ({K(Palm)}-GCVLGTCQVQNLSHRLWQLMGPAGRQDSAPVDPSSPHSY; ends and bridges not checked) [IMD-PA, long-acting intermedin peptide, palmitic acid-modified via an incorporated Lys(PAL) residue]",change in systolic blood pressure over time,SHR rats [2]; i.p. injection,significant and long lasting drop
same,duration of hypotensive effect in vivo,SHR rats [2]; IMD-PA 30 or 100 nmoles/kg BW,over five
